Experiments:
[1] = system: β-Glucosidase derived from almond; test: Reactivity toward various isoflavone glycosides (HPLC); assay type: biochemical; design: unit not given here; settings: 55 °C, pH 4.0
Procedure, shortened: (§1)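 Aglycone liberation was measured by reversed-phase HPLC (260 nm, calibration-curve quantitation) after ethanol extraction at 0, 1, 3 and 6 h. Reactions ran at 55° C, pH 4.0 (20 mM acetate), with each glycoside (from 2 mM methanol stock) and 0.75 AU/mL enzyme solution.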

[2] = system: β-Xylosidase derived from pectinase G; test: as above; assay type: biochemical; design: unit not given here; settings: 55 °C, pH 4.0
Procedure, shortened: as §1

Crude diglycosidase = test: Examination of substrate concentration in the conversion into isoflavone aglycons by diglycosidase using soybean materials; assay type: biochemical, Penicillium multicolor IAM7153;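 note: percent of the isoflavone family total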
Procedure, shortened: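 Reaction at 55° C, shaken, pH 4.0 (20 mM acetate), using crude diglycosidase from a 1.88 AU/mL enzyme solution on soy flour, soymilk, defatted soybean or soy protein concentrate at 2, 5, 10, 20 or 30% (w/v). Isoflavone aglycons quantified by HPLC of ethanol extracts at 0, 1, 3, 6 h.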

SMILES: COc1cc2c(=O)c(-c3ccc(O)cc3)coc2cc1O[C@@H]1O[C@H](COC(=O)CC(=O)O)[C@@H](O)[C@H](O)[C@H]1O [malonylglycitin, 6″-O-malonylglycitin]
- aglycon ([1]; Reaction time 0 h): 0
- glucoside ([1]; Reaction time 0 h): 100
- aglycon ([1]; Reaction time 1 h): 0
- glucoside ([1]; Reaction time 1 h): 100
- aglycon ([1]; Reaction time 3 h): 0
- glucoside ([1]; Reaction time 3 h): 100
- aglycon ([1]; Reaction time 6 h): 0
- glucoside ([1]; Reaction time 6 h): 100
- aglycon ([2]; Reaction time 0 h): 0
- glucoside ([2]; Reaction time 0 h): 100
- aglycon ([2]; Reaction time 1 h): 0
- glucoside ([2]; Reaction time 1 h): 100
- aglycon ([2]; Reaction time 3 h): 0
- glucoside ([2]; Reaction time 3 h): 100
- aglycon ([2]; Reaction time 6 h): 0.4
- glucoside ([2]; Reaction time 6 h): 99.6
- Decomposition efficiency: ratio of each glycoside/aglycon within its isoflavone family (Crude diglycosidase; concentrated soybean protein, substrate concentration 2%, heat treatment of enzyme no, reaction time 0 h): 0.4%
- Decomposition efficiency: ratio of each glycoside/aglycon within its isoflavone family (Crude diglycosidase; concentrated soybean protein, substrate concentration 2%, heat treatment of enzyme no, reaction time 1 h): 0.4%
- Decomposition efficiency: ratio of each glycoside/aglycon within its isoflavone family (Crude diglycosidase; concentrated soybean protein, substrate concentration 2%, heat treatment of enzyme no, reaction time 3 h): 0.2%
- Decomposition efficiency: ratio of each glycoside/aglycon within its isoflavone family (Crude diglycosidase; concentrated soybean protein, substrate concentration 2%, heat treatment of enzyme no, reaction time 6 h): not detected
- Decomposition efficiency: ratio of each glycoside/aglycon within its isoflavone family (Crude diglycosidase; concentrated soybean protein, substrate concentration 2%, heat treatment of enzyme yes, reaction time 6 h): 0.4%
- Decomposition efficiency: ratio of each glycoside/aglycon within its isoflavone family (Crude diglycosidase; concentrated soybean protein, substrate concentration 5%, heat treatment of enzyme no, reaction time 0 h): 0.4%
- Decomposition efficiency: ratio of each glycoside/aglycon within its isoflavone family (Crude diglycosidase; concentrated soybean protein, substrate concentration 5%, heat treatment of enzyme no, reaction time 1 h): 0.5%
- Decomposition efficiency: ratio of each glycoside/aglycon within its isoflavone family (Crude diglycosidase; concentrated soybean protein, substrate concentration 5%, heat treatment of enzyme no, reaction time 3 h): 0.4%
- Decomposition efficiency: ratio of each glycoside/aglycon within its isoflavone family (Crude diglycosidase; concentrated soybean protein, substrate concentration 5%, heat treatment of enzyme no, reaction time 6 h): 0.2%
- Decomposition efficiency: ratio of each glycoside/aglycon within its isoflavone family (Crude diglycosidase; concentrated soybean protein, substrate concentration 5%, heat treatment of enzyme yes, reaction time 6 h): 0.4%
- Decomposition efficiency: ratio of each glycoside/aglycon within its isoflavone family (Crude diglycosidase; concentrated soybean protein, substrate concentration 10%, heat treatment of enzyme no, reaction time 0 h): 0.3%
- Decomposition efficiency: ratio of each glycoside/aglycon within its isoflavone family (Crude diglycosidase; concentrated soybean protein, substrate concentration 10%, heat treatment of enzyme no, reaction time 1 h): 0.4%
- Decomposition efficiency: ratio of each glycoside/aglycon within its isoflavone family (Crude diglycosidase; concentrated soybean protein, substrate concentration 10%, heat treatment of enzyme no, reaction time 3 h): 0.3%
- Decomposition efficiency: ratio of each glycoside/aglycon within its isoflavone family (Crude diglycosidase; concentrated soybean protein, substrate concentration 10%, heat treatment of enzyme no, reaction time 6 h): 0.3%
- Decomposition efficiency: ratio of each glycoside/aglycon within its isoflavone family (Crude diglycosidase; concentrated soybean protein, substrate concentration 10%, heat treatment of enzyme yes, reaction time 6 h): 0.3%
- Decomposition efficiency: ratio of each glycoside/aglycon within its isoflavone family (Crude diglycosidase; concentrated soybean protein, substrate concentration 20%, heat treatment of enzyme no, reaction time 0 h): 0.2%
- Decomposition efficiency: ratio of each glycoside/aglycon within its isoflavone family (Crude diglycosidase; concentrated soybean protein, substrate concentration 20%, heat treatment of enzyme no, reaction time 1 h): 0.3%
- Decomposition efficiency: ratio of each glycoside/aglycon within its isoflavone family (Crude diglycosidase; concentrated soybean protein, substrate concentration 20%, heat treatment of enzyme no, reaction time 3 h): 0.2%
- Decomposition efficiency: ratio of each glycoside/aglycon within its isoflavone family (Crude diglycosidase; concentrated soybean protein, substrate concentration 20%, heat treatment of enzyme no, reaction time 6 h): 0.3%
- Decomposition efficiency: ratio of each glycoside/aglycon within its isoflavone family (Crude diglycosidase; concentrated soybean protein, substrate concentration 20%, heat treatment of enzyme yes, reaction time 6 h): 0.4%
- Decomposition efficiency: ratio of each glycoside/aglycon within its isoflavone family (Crude diglycosidase; concentrated soybean protein, substrate concentration 30%, heat treatment of enzyme no, reaction time 0 h): 0.4%
- Decomposition efficiency: ratio of each glycoside/aglycon within its isoflavone family (Crude diglycosidase; concentrated soybean protein, substrate concentration 30%, heat treatment of enzyme no, reaction time 1 h): 0.6%
- Decomposition efficiency: ratio of each glycoside/aglycon within its isoflavone family (Crude diglycosidase; concentrated soybean protein, substrate concentration 30%, heat treatment of enzyme no, reaction time 3 h): 0.5%
- Decomposition efficiency: ratio of each glycoside/aglycon within its isoflavone family (Crude diglycosidase; concentrated soybean protein, substrate concentration 30%, heat treatment of enzyme no, reaction time 6 h): 0.3%
- Decomposition efficiency: ratio of each glycoside/aglycon within its isoflavone family (Crude diglycosidase; concentrated soybean protein, substrate concentration 30%, heat treatment of enzyme yes, reaction time 6 h): 0.4%
- Decomposition efficiency: ratio of each glycoside/aglycon within its isoflavone family (Crude diglycosidase; defatted soybean, substrate concentration 2%, heat treatment of enzyme no, reaction time 0 h): not detected
- Decomposition efficiency: ratio of each glycoside/aglycon within its isoflavone family (Crude diglycosidase; defatted soybean, substrate concentration 2%, heat treatment of enzyme no, reaction time 1 h): not detected
- Decomposition efficiency: ratio of each glycoside/aglycon within its isoflavone family (Crude diglycosidase; defatted soybean, substrate concentration 2%, heat treatment of enzyme no, reaction time 3 h): not detected
- Decomposition efficiency: ratio of each glycoside/aglycon within its isoflavone family (Crude diglycosidase; defatted soybean, substrate concentration 2%, heat treatment of enzyme no, reaction time 6 h): not detected
- Decomposition efficiency: ratio of each glycoside/aglycon within its isoflavone family (Crude diglycosidase; defatted soybean, substrate concentration 2%, heat treatment of enzyme yes, reaction time 6 h): not detected
- Decomposition efficiency: ratio of each glycoside/aglycon within its isoflavone family (Crude diglycosidase; defatted soybean, substrate concentration 5%, heat treatment of enzyme no, reaction time 0 h): 58.4%
- Decomposition efficiency: ratio of each glycoside/aglycon within its isoflavone family (Crude diglycosidase; defatted soybean, substrate concentration 5%, heat treatment of enzyme no, reaction time 1 h): 41.6%
- Decomposition efficiency: ratio of each glycoside/aglycon within its isoflavone family (Crude diglycosidase; defatted soybean, substrate concentration 5%, heat treatment of enzyme no, reaction time 3 h): 31.8%
- Decomposition efficiency: ratio of each glycoside/aglycon within its isoflavone family (Crude diglycosidase; defatted soybean, substrate concentration 5%, heat treatment of enzyme no, reaction time 6 h): 19.5%
- Decomposition efficiency: ratio of each glycoside/aglycon within its isoflavone family (Crude diglycosidase; defatted soybean, substrate concentration 5%, heat treatment of enzyme yes, reaction time 6 h): 58.5%
- Decomposition efficiency: ratio of each glycoside/aglycon within its isoflavone family (Crude diglycosidase; defatted soybean, substrate concentration 10%, heat treatment of enzyme no, reaction time 0 h): 53.0%
- Decomposition efficiency: ratio of each glycoside/aglycon within its isoflavone family (Crude diglycosidase; defatted soybean, substrate concentration 10%, heat treatment of enzyme no, reaction time 1 h): 54.7%

— patent publication US7118895B2, “Process for producing aglycon by using diglycosidase and flavor-improved food containing the aglycon and converting agent to be used in the process” (Amano Enzyme Inc., priority 2000, dated 2006)
